Assay results from patent US20060189693A1, “Methods of treatment with lxr agonists” (priority 2003, published 2006).

Legend:
[1] = test system: LV mass (cardiac hypertrophy) of aorta-constricted CD-1 mice; assay: Effect on LV mass in aorta-constricted mice (Example 3); format: in vivo
Method: Male CD-1 mice (n=7 per group), 20-25 g in weight, were used for the experiment. Each mouse was anaesthetized with isoflurane 1-2%. Each mouse's aorta was exposed between the two renal arteries and was surgically constricted using a 30-gauge needle and 6.0 suture to induce heart growth. Seven days after surgery, baseline echocardiography was performed on each mouse to establish left ventricular mass (“LV mass”). Enalapril, the gold standard in treating cardiac hypertrophy, was orally administered to the mice at the dose of 10 mg/kg beginning on day 11 (4 days after baseline) and was continued once daily for 10 days. The compound of Formula IIa was suspended in 0.5% methylcellulose (MC) solution (vehicle) and was orally administered to the mice at the doses of 10 mg/kg twice a day, beginning on day 11. The control group was administered with vehicle (0.5% MC) beginning on day 11. Repeat echocardiography was conducted on each mouse 14 and 21 days after surgery.

[2] = test system: LV mass (cardiac hypertrophy) of aorta-constricted CD-1 mice; assay: Effect on LV mass in aorta-constricted mice, dose range (Example 4); format: in vivo; set-up: unit not given here
Method: Male CD-1 mice (n=7 per group), 20-25 g in weight, were used for the experiment. Each mouse was anaesthetized with isoflurane 1-2%. Each mouse's aorta was exposed between the two renal arteries and was surgically constricted using a 30-gauge needle and 6.0 suture to induce heart growth. Seven days after surgery, baseline echocardiography was performed on each mouse to establish left ventricular mass (“LV mass”). Enalapril was orally administered to the mice at the dose of 10 mg/kg beginning on day 11 (4 days after baseline) and was continued once daily for 10 days. Formula IIa, suspended in 0.5% MC (vehicle), was orally administered to the mice at the doses of 3.0 mg/kg, 10 mg/kg, or 30 mg/kg once a day beginning on day 11. Formula Ia, suspended in 0.5% MC (vehicle), was orally administered to the mice at the dose of 50 mg/kg once a day beginning on day 11. The control group was administered with vehicle (0.5% MC). Repeat echocardiography was conducted on each mouse 14 and 21 days after surgery.

LXRβ protein = biological target: T1, LXRβ protein (Homo sapiens, UniProt P55055); details: 1 μM; over a background reading of 10000 fluorescence units; cited from earlier work
T1 sequence (P55055 1-460): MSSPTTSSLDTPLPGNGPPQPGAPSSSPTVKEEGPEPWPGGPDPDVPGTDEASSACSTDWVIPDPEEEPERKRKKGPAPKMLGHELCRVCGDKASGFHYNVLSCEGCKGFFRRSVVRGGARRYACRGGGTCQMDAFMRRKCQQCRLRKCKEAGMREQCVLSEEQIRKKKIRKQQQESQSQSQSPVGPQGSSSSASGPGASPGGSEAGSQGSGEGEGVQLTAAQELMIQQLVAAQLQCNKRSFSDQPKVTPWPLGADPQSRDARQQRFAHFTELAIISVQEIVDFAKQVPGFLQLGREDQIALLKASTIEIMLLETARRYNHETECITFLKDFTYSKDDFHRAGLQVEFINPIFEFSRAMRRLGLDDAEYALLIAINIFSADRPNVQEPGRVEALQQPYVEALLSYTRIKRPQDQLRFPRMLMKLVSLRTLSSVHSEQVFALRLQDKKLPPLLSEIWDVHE

For `O=C(O)Cc1cccc(OCCCN(Cc2cccc(C(F)(F)F)c2Cl)CC(c2ccccc2)c2ccccc2)c1` [Formula IIa, 2-(3-{3-[[2-Chloro-3-(Trifluoromethyl)Benzyl](2,2-Diphenylethyl)Amino]Propoxy}-Phenyl)Acetic Acid], the “Mean ± SE LV Mass” value ([1]; 10 mg/kg BID oral from day 11, 14 days after surgery) was 99.45 ± 1.98, the “Mean ± SE LV Mass” value ([1]; 10 mg/kg BID oral from day 11, 21 days after surgery) was 100.66 ± 2.43 and the “further increase in LV Mass” value ([1]; 10 mg/kg b.i.d. oral) was “prevented any further increase in LV Mass”. The “LV Mass compared to vehicle” value ([1]; 10 mg/kg b.i.d. oral, 14 and 21 days after surgery, p<0.05) was “statistically significant reduction”, the “Mean ± SE LV Mass” value ([1]; Formula IIa group 10 mg/kg BID oral, 7 days after surgery (baseline, before dosing from day 11)) was 100.88 ± 2.77 and the “Mean ± SE LV Mass” value ([2]; 3 mg/kg once a day oral from day 11, 14 days after surgery) was 106.75 ± 2.43. For the same molecule, the “Mean ± SE LV Mass” value ([2]; 3 mg/kg once a day oral from day 11, 21 days after surgery) was 106.54 ± 2.56, the “Mean ± SE LV Mass” value ([2]; 3 mg/kg once a day oral group, 7 days after surgery (baseline, before dosing)) was 98.9 ± 4.59 and the “Mean ± SE LV Mass” value ([2]; 10 mg/kg once a day oral from day 11, 14 days after surgery) was 96.31 ± 2.70. The “Mean ± SE LV Mass” value ([2]; 10 mg/kg once a day oral from day 11, 21 days after surgery) was 95.5 ± 2.97, the “Mean ± SE LV Mass” value ([2]; 10 mg/kg once a day oral group, 7 days after surgery (baseline, before dosing)) was 98.01 ± 2.39 and the “Mean ± SE LV Mass” value ([2]; 30 mg/kg once a day oral from day 11, 14 days after surgery) was 101.77 ± 2.25. For the same molecule, the “Mean ± SE LV Mass” value ([2]; 30 mg/kg once a day oral from day 11, 21 days after surgery) was 101.99 ± 4.00 and the “Mean ± SE LV Mass” value ([2]; 30 mg/kg once a day oral group, 7 days after surgery (baseline, before dosing)) was 102.42 ± 2.27.
For `C[C@H](CC[C@@H]1OC1(C)C)[C@H]1CC[C@H]2[C@@H]3CC=C4C[C@@H](O)CC[C@]4(C)[C@H]3CC[C@]12C` [24(S), 25-epoxycholesterol], the “reading (fluorescence)” value (LXRβ protein) is listed as 20000 fluorescence units.
For `O=S(=O)(c1ccccc1)N(CC(F)(F)F)c1ccc(C(O)(C(F)(F)F)C(F)(F)F)cc1` [Formula Ia, N-(2,2,2-Trifluoroethyl)-N-[4-(2,2,2-Trifluoro-1-Hydroxy-1-Trifluoromethyl-Ethyl)-Phenyl]-Benzenesulfonamide], the “Mean ± SE LV Mass” value ([2]; 50 mg/kg once a day oral from day 11, 14 days after surgery) was 106.56 ± 3.86 and the “Mean ± SE LV Mass” value ([2]; 50 mg/kg once a day oral group, 7 days after surgery (baseline, before dosing)) was 101.85 ± 4.75.
With `CCOC(=O)[C@H](CCc1ccccc1)N[C@@H](C)C(=O)N1CCC[C@H]1C(=O)O` [Enalapril, reference compound] the “Mean ± SE LV Mass” value ([1]; 10 mg/kg once daily oral from day 11, 14 days after surgery) was 84.90 ± 1.11, the “LV Mass compared to vehicle” value ([1]; 10 mg/kg once daily oral, days 14 and 21, p<0.05) was “significantly (p<0.05) reduced LV Mass” and the “LV Mass compared to baseline hypertrophy (reversal of pathology)” value ([1]; 10 mg/kg once daily oral, p<0.05) was “significantly (p<0.05) reversed the pathology”. For the same molecule, the “Mean ± SE LV Mass” value ([1]; Enalapril group 10 mg/kg once daily oral, 7 days after surgery (baseline, before dosing from day 11)) was 94.09 ± 1.950, the “Mean ± SE LV Mass” value ([2]; Enalapril 10 mg/kg once daily oral from day 11, 14 days after surgery) was 95.1 ± 3.90 and the “Mean ± SE LV Mass” value ([2]; Enalapril 10 mg/kg once daily oral from day 11, 21 days after surgery) was 91.4 ± 2.48. The “Mean ± SE LV Mass” value ([2]; Enalapril group 10 mg/kg once daily oral, 7 days after surgery (baseline, before dosing)) was 101.02 ± 2.79.
